Assay [1] has as its target hNaV1.1 (Homo sapiens, UniProt P35498). The assay is described as follows: cell-based. Type of assay: cell-based.
Assay [2] addresses hNaV1.7 (Homo sapiens, UniProt Q15858). The experiment in a line: cell-based. The class given is cell-based.

Drawing on paper PMC8490825 (Frontiers in Molecular Biosciences, 2021), this text covers IC50 for 3 compounds.

As usually defined, the IC50 is the midpoint of a concentration-inhibition curve. Low values mean greater potency, high ones weaker potency.

Where a SMILES comes first, the peptide text is derived from it. Bridges are numbered along the chain shown (N, C = ends). Bounds are passed on as bounds.

Sequence of hNaV1.7 (Q15858 whole entry, looked up): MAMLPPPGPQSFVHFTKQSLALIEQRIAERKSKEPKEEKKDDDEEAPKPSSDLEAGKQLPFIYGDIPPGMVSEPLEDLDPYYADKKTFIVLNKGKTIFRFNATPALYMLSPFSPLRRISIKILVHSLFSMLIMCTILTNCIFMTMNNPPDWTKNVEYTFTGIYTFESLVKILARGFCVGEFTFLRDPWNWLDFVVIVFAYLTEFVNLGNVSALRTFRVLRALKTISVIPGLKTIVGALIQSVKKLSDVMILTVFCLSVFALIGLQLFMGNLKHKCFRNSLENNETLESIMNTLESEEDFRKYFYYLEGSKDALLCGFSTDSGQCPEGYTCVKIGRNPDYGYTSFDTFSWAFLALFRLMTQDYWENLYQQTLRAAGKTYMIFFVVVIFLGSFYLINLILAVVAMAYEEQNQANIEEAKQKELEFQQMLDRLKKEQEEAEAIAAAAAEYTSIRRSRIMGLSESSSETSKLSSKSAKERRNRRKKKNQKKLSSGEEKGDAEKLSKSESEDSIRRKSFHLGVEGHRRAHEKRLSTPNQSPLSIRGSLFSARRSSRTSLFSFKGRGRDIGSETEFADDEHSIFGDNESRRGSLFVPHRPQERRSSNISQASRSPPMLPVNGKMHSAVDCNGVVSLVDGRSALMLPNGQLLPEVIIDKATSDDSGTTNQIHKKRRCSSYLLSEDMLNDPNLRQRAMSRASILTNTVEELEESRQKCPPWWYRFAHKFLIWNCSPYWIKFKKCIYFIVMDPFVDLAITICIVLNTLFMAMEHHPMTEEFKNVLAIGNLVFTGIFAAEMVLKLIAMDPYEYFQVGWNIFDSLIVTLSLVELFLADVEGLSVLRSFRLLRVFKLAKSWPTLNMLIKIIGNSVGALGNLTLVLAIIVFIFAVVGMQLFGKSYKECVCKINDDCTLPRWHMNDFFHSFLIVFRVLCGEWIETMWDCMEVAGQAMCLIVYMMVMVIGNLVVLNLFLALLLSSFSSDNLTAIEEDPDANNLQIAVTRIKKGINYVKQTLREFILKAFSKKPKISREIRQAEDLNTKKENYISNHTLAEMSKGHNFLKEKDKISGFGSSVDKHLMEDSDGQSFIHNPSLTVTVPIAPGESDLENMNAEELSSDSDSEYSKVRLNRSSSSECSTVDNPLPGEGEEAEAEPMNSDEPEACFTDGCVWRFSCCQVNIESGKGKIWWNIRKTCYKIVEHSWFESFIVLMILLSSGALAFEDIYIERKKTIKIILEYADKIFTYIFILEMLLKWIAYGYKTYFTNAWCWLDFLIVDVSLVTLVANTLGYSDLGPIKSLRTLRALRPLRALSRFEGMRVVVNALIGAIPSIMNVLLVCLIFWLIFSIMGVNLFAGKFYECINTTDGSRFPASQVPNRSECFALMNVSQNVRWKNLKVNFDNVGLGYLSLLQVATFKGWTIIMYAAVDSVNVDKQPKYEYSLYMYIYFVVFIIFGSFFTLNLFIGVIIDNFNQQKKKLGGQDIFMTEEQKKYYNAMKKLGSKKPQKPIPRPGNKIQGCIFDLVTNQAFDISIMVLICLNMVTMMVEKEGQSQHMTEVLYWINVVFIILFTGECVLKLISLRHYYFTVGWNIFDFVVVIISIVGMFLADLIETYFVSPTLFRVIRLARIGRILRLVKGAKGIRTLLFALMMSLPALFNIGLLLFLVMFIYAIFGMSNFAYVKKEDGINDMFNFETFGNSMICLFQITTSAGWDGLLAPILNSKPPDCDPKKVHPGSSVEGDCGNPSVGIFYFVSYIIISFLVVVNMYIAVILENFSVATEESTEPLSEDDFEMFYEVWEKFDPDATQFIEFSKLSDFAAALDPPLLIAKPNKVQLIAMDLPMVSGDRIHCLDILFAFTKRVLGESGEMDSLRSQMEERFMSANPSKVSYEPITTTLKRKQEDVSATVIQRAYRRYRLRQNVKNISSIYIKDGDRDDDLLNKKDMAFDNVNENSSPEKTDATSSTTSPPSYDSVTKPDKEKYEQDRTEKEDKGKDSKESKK

As to `CSCC[C@@H]1NC(=O)CNC(=O)[C@H](CC(C)C)NC(=O)[C@@H](NC(=O)[C@H](CC(=O)O)NC(=O)[C@H](CC(=O)O)NC(=O)CN)CSSC[C@@H]2NC(=O)[C@@H]3CSSC[C@@H](C(=O)N[C@@H](CCCCN)C(=O)N[C@@H](Cc4ccc(O)cc4)C(=O)N[C@@H](C)C(=O)N[C@@H](CC(C)C)C(=O)N[C@@H](Cc4c[nH]c5ccccc45)C(=O)O)NC(=O)[C@H](Cc4c[nH]c5ccccc45)NC(=O)[C@H](CCC(N)=O)NC(=O)[C@H](CC(=O)O)NC(=O)[C@H](CCCCN)NC(=O)[C@H](CCCNC(=N)N)NC(=O)[C@H](CO)NC(=O)[C@H](CSSC[C@H](NC(=O)[C@H](CO)NC(=O)[C@H](CO)NC(=O)[C@H](Cc4ccccc4)NC1=O)C(=O)N[C@@H](CC(=O)O)C(=O)N1CCC[C@H]1C(=O)N[C@@H](CC(N)=O)C(=O)N[C@@H](CC(N)=O)C(=O)N[C@@H](CC(=O)O)C(=O)N[C@@H](CCCCN)C(=O)N3)NC(=O)[C@H](CCCCN)NC(=O)[C@H](CCCNC(=N)N)NC(=O)[C@H](CC(N)=O)NC(=O)[C@@H]1CCCN1C2=O` [Peptide Q33A] (H-GDDCLGMFSSCDPNNDKCCPNRKCSRKDQWCKYALW-OH; disulfide 4-19, 11-24, 18-31), the results for the IC50 in assay [1] and in assay [2] were 163 nM and 99 nM, respectively.

As to `CSCC[C@@H]1NC(=O)CNC(=O)[C@H](CC(C)C)NC(=O)[C@@H](NC(=O)[C@H](CC(=O)O)NC(=O)[C@H](CC(=O)O)NC(=O)CN)CSSC[C@@H]2NC(=O)[C@@H]3CSSC[C@@H](C(=O)N[C@@H](CCCCN)C(=O)N[C@@H](Cc4ccc(O)cc4)C(=O)N[C@@H](CCC(N)=O)C(=O)N[C@@H](CC(C)C)C(=O)N[C@@H](Cc4c[nH]c5ccccc45)C(=O)O)NC(=O)[C@H](Cc4c[nH]c5ccccc45)NC(=O)[C@H](CCC(N)=O)NC(=O)[C@H](CC(=O)O)NC(=O)[C@H](CCCCN)NC(=O)[C@H](CCCNC(=N)N)NC(=O)[C@H](C)NC(=O)[C@H](CSSC[C@H](NC(=O)[C@H](CO)NC(=O)[C@H](CO)NC(=O)[C@H](Cc4ccccc4)NC1=O)C(=O)N[C@@H](CC(=O)O)C(=O)N1CCC[C@H]1C(=O)N[C@@H](CC(N)=O)C(=O)N[C@@H](CC(N)=O)C(=O)N[C@@H](CC(=O)O)C(=O)N[C@@H](CCCCN)C(=O)N3)NC(=O)[C@H](CCCCN)NC(=O)[C@H](CCCNC(=N)N)NC(=O)[C@H](CC(N)=O)NC(=O)[C@@H]1CCCN1C2=O` [Peptide S24A] (H-GDDCLGMFSSCDPNNDKCCPNRKCARKDQWCKYQLW-OH; disulfide 4-19, 11-24, 18-31), the 50% inhibitory concentration (IC50) in assay [1] is more than 1000 nM; in assay [2] it was 920 nM.

Regarding `CSCC[C@@H]1NC(=O)CNC(=O)[C@H](CC(C)C)NC(=O)[C@@H](NC(=O)[C@H](CC(=O)O)NC(=O)[C@H](CC(=O)O)NC(=O)CN)CSSC[C@@H]2NC(=O)[C@@H]3CSSC[C@@H](C(=O)N[C@@H](CCCCN)C(=O)N[C@@H](Cc4ccc(O)cc4)C(=O)N[C@@H](CCC(N)=O)C(=O)N[C@@H](CC(C)C)C(=O)N[C@@H](C)C(=O)O)NC(=O)[C@H](Cc4c[nH]c5ccccc45)NC(=O)[C@H](CCC(N)=O)NC(=O)[C@H](CC(=O)O)NC(=O)[C@H](CCCCN)NC(=O)[C@H](CCCNC(=N)N)NC(=O)[C@H](CO)NC(=O)[C@H](CSSC[C@H](NC(=O)[C@H](CO)NC(=O)[C@H](CO)NC(=O)[C@H](Cc4ccccc4)NC1=O)C(=O)N[C@@H](CC(=O)O)C(=O)N1CCC[C@H]1C(=O)N[C@@H](CC(N)=O)C(=O)N[C@@H](CC(N)=O)C(=O)N[C@@H](CC(=O)O)C(=O)N[C@@H](CCCCN)C(=O)N3)NC(=O)[C@H](CCCCN)NC(=O)[C@H](CCCNC(=N)N)NC(=O)[C@H](CC(N)=O)NC(=O)[C@@H]1CCCN1C2=O` [Peptide W35A] (H-GDDCLGMFSSCDPNNDKCCPNRKCSRKDQWCKYQLA-OH; disulfide 4-19, 11-24, 18-31), the IC50 in assay [1] and in assay [2] was more than 1000 nM throughout.
